Source: patent publication US4354039A, “Chlorocitric acids” (Hoffmann-La Roche Inc., priority 1981, dated 1982)

What was measured:
[1] = Total body fat in meal-fed rats, oral, 17 day study (Example 22); format: in vivo, Charles River female rats; settings: Chow, 17 days
Method: Two month old Charles River female rats (Charles River Breeding Laboratories, Wilmington, Mass.) were individually housed in wire-bottomedcages in a temperature-regulated (22° C.) light-controlled room (12 hr light, 6 a.m. to 6 p.m. and 12 hr dark, 6 p.m. to 6 a.m.). […] On the 8th day, the animals were administered water or (-)-threo-chlorocitric acid at the indicated concentration by oral intubation 30 min before the 3 hr meal. Treatment was continued for 17 days. Food cups were weighed immediately after the meal. After 17 days of treatment, rats were killed by decapitation and blood was removed. […] C. Sullivan, et al, Am. J. Clinical Nutrition, 30 767 (1977). […] Total carcass and lipid data are expressed in grams and percentages of carcass weight.

[2] = Effect on stomach emptying, [14C] glucose load (Example 25); format: in vivo, Rats; settings: 0.33 mmoles/kg oral, 60 min after [14C] glucose load
Method: Rats were trained to consume a 3 hr 70% glucose meal from 8 a.m. to 11 a.m. daily. On the experimental day, compounds were administered orally by intubation 30 min before a [^14 C] glucose load was given also by intubation. […] Sixty minutes later the rats were killed by decapitation; blood and stomachs were collected on ice.
Data are expressed as follows: dpm×10^3 per ml of serum and dpm×10^3 per stomach.

[3] = Food intake in dogs, pyramiding oral doses (Examples 26 and 27); format: in vivo, beagle dogs
Method: Twelve beagle dogs of both sexes weighing 7.6-12.2 kg were used for this test. The test compounds were contained in gelatin capsules for oral administration to two dogs of each sex. The animals were weighed and food consumption calculated daily excluding weekends throughout the test period. Each animal received 800 grams of diet daily consisting of 400 grams of Wayne pellet dog food mixed with 400 ml distilled water. The animals received pyramiding oral doses of the test compound over the three week period. On Monday and Tuesday of the first week the animals were weighed and food consumption was recorded (control). […] Doses of 30, 100 and 300 mg/kg were administered on Monday, Wednesday and Friday respectively during the second week. A final dose of 1000 mg/kg was administered on Monday of the third week.
Food intake was determined by the procedure at pyramiding doses described in EXAMPLE 26.

[4] = Anorectic activities of stereoisomers, 3-day food consumption and body weight gain (Example 16); format: in vivo, Charles River female rats; settings: 1.32 mmoles/kg oral, 3 days
Method: Charles River female rats (Charles River Breeding Laboratories, Wilmington, Mass.), weighing 196 to 210 g, were individually housed in wire-bottomed cages in a temperature-regulated (22° C.) light-controlled room (12 hr light, 6 a.m. to 6 p.m. and 12 hr dark, 6 p.m. to 6 a.m.). Animals were fasted 48 hr, then meal-fed a 70% glucose diet from 8 to 11 a.m. Following 5 to 12 days alimentation on the meal-feeding regimen, rats were dosed with the appropriate compounds orally by intubation 1/2 hr before the 3 hr meal for 3 days. The total food consumption and body weight gained during the 3 day period were determined. The control group consisted of 16 rats, while the experimental group consists of 8 rats.

[5] = Effect of stereoisomers on food consumption of meal-fed rats (Example 14); format: in vivo, Charles River female rats
Method: Animals were fasted 48 hr, then meal-fed the 70% glucose diet described by A. C. […] Following 5 to 12 days alimentation on the meal-feeding regimen, rats were dosed with the appropriate compounds orally by intubation 1/2 hr before the 3 hr meal. Food cups were weighed immediately after the meal. The control group consisted of 5 to 10 rats, while the experimental group consisted of 4 to 6 rats.

[6] = Anorectic activity, acute, pyramiding dose and chronic studies (summary statements); format: in vivo, mammals; settings: in words
[7] = Body weight and food intake in meal-fed rats, 16 day study (Example 19); format: in vivo, Charles River female rats; settings: baseline
Method: Two month old Charles River female rats (Charles River Breeding Laboratories, Wilmington, Mass.) were individually housed in wire-bottomedcages in a temperature-regulated (22° C.) light-controlled room (12 hr light, 6 a.m. to 6 p.m. and 12 hr dark, 6 p.m. to 6 a.m.). […] (1) control, (2) (-)-threo-chlorocitric acid (1.0 mmoles/kg, 227 mg/kg) administered by oral intubation 30 min before the 3 hr meal, and (3) (-)-threo-chlorocitric acid (1.1 mmoles/kg, 250 mg/kg) as a dietary admixture for the 3 hr meal. Treatment was continued for 16 days. The amount of body weight gained and food consumed during the study were determined.

[8] = test day 8, dose 100 mg/kg oral
[9] = test day 10, dose 300 mg/kg oral
[10] = test day 13, dose 1000 mg/kg oral

SMILES: O=C(O)C[C@@](O)(C(=O)O)[C@@H](Cl)C(=O)O [(-)-threo-Chlorocitric acid]
- Carcass Lipid % carcass, % of control ([1]; 0.25 mmoles (57 mg)/kg oral): 99 % of control
- Carcass Lipid total, % of control ([1]; 0.25 mmoles (57 mg)/kg oral): 101 % of control
- Carcass Lipid, % carcass ([1]; 0.25 mmoles (57 mg)/kg oral): 4.56 ± 0.42 % carcass
- Carcass Lipid, total ([1]; 0.25 mmoles (57 mg)/kg oral): 9.64 ± 0.80 g
- Carcass Weight ([1]; 0.25 mmoles (57 mg)/kg oral): 213 ± 4 g
- Carcass Lipid % carcass, % of control ([1]; 0.50 mmoles (114 mg)/kg oral): 58 % of control
- Carcass Lipid total, % of control ([1]; 0.50 mmoles (114 mg)/kg oral): 50 % of control
- Carcass Lipid, % carcass ([1]; 0.50 mmoles (114 mg)/kg oral): 2.70 ± 0.17 % carcass
- Carcass Lipid, total ([1]; 0.50 mmoles (114 mg)/kg oral): 4.80 ± 0.48 g
- Carcass Weight ([1]; 0.50 mmoles (114 mg)/kg oral): 173 ± 4 g
- Carcass Lipid % carcass, % of control ([1]; 1.00 mmoles (227 mg)/kg oral): 52 % of control
- Carcass Lipid total, % of control ([1]; 1.00 mmoles (227 mg)/kg oral): 41 % of control
- Carcass Lipid, % carcass ([1]; 1.00 mmoles (227 mg)/kg oral): 2.40 ± 0.22 % carcass
- Carcass Lipid, total ([1]; 1.00 mmoles (227 mg)/kg oral): 3.92 ± 0.37 g
- Carcass Weight ([1]; 1.00 mmoles (227 mg)/kg oral): 163 ± 7 g
- Serum, % of control [2]: 33 % of control
- Stomach Contents, % of control [2]: 312 % of control
- Food Consumption ([3]; test day 1, dose 3 mg/kg oral): 450 ± 165 g
- Food Consumption, % of control ([3]; test day 1, dose 3 mg/kg oral): 60 % of control
- Food Consumption ([3]; test day 2, no dose): 646 ± 83 g
- Food Consumption, % of control ([3]; test day 2, no dose): 87 % of control
- Food Consumption ([3]; test day 3, dose 10 mg/kg oral): 440 ± 121 g
- Food Consumption, % of control ([3]; test day 3, dose 10 mg/kg oral): 59 % of control
- Food Consumption ([3]; test day 6, dose 30 mg/kg oral): 406 ± 86 g
- Food Consumption, % of control ([3]; test day 6, dose 30 mg/kg oral): 55 % of control
- Food Consumption ([3]; test day 7, no dose): 668 ± 115 g
- Food Consumption, % of control ([3]; test day 7, no dose): 90 % of control
- Food Consumption [3, 8]: 142 ± 38 g
- Food Consumption, % of control [3, 8]: 19 % of control
- Food Consumption ([3]; test day 9, no dose): 619 ± 62 g
- Food Consumption, % of control ([3]; test day 9, no dose): 83 % of control
- Food Consumption [3, 9]: 55 ± 39 g
- Food Consumption, % of control [3, 9]: 7 % of control
- Food Consumption [3, 10]: 56 ± 22 g
- Food Consumption, % of control [3, 10]: 8 % of control
- Food Consumption ([3]; test day 14, no dose): 439 ± 163 g
- Food Consumption, % of control ([3]; test day 14, no dose): 59 % of control
- Food Consumption ([3]; test day 15, no dose): 583 ± 149 g
- Food Consumption, % of control ([3]; test day 15, no dose): 78 % of control
- Food Consumption ([3]; test day 16, no dose): 600 ± 76 g
- Food Consumption, % of control ([3]; test day 16, no dose): 81 % of control
- Food Consumption ([3]; test day 17, no dose): 677 ± 73 g
- Food Consumption, % of control ([3]; test day 17, no dose): 91 % of control
- Food Consumption ([3]; test day 21, no dose): 644 ± 100 g
- Food Consumption, % of control ([3]; test day 21, no dose): 87 % of control
- Food Consumption ([3]; test day 22, no dose): 800 ± 0 g
- Food Consumption, % of control ([3]; test day 22, no dose): 108 % of control
- Food Consumption ([3]; test day 23, no dose): 596 ± 121 g
- Food Consumption, % of control ([3]; test day 23, no dose): 80 % of control
- Food Consumption ([3]; test day 24, no dose): 695 ± 79 g
- Food Consumption, % of control ([3]; test day 24, no dose): 94 % of control
- Food Consumption ([3]; test day 27, no dose): 732 ± 68 g
- Food Consumption, % of control ([3]; test day 27, no dose): 99 % of control
- Food Consumption ([3]; test day 28, no dose): 775 ± 26 g
- Food Consumption, % of control ([3]; test day 28, no dose): 104 % of control
- 3-Day Body Weight Gain, % of initial body weight [4]: -11.0 % of initial body weight
- 3-Day Food Consumption, % of control [4]: 37 % of control
- Food Consumption, % of control ([5]; 0.66 mmoles/kg oral): 59 % of control
- Food Consumption, % of control ([5]; 2.63 mmoles/kg oral): 16 % of control
- activity in the acute meal-fed assay utilizing three diets and in pyramiding dose studies, reduction in food consumption [6]: significantly more active
- appetite suppression and reduction of body weight gain ([6]; short- and long-term chronic studies): suppressed appetite and reduced body weight gain in mammals more efficaciously than hydroxycitric acid or citric acid
- IBW, initial body weight ([7]; dietary admixture 1.1 mmoles (250 mg)/kg/day): 192 ± 5 g
- IBW, initial body weight ([7]; oral intubation 1.0 mmoles (227 mg)/kg/day): 189 ± 3 g
